{
  "source": "patent US11992558B2",
  "about": "“Controlled release formulation comprising flavoxate” (priority 2018, dated 2024)",
  "key": {"[1]": {"details": "cited from earlier work"}, "[2]": {"assay": "Solubility of flavoxate in various solvents at 20° C.", "assay_type": "physicochemical", "procedure": "(§1) Solubility of flavoxate hydrochloride was determined in various aqueous buffers, water, ethanol, acetone and ethyl ether at 20° C. and at ambient temperature (20 to 25° C.)."}, "[3]": {"assay": "Drug-excipient compatibility (Total RS)", "assay_type": "physicochemical", "procedure": "Experiments were conducted to ascertain compatibility of the drug with commonly used excipients."}, "[4]": {"assay": "pH-dependent aqueous solubility at ambient temperature", "assay_type": "physicochemical", "details": "20 °C", "procedure": "as §1"}, "[5]": {"assay": "Flow properties of drug powder", "assay_type": "physicochemical", "procedure": "Tapped density • 2. Bulk density • 3. Compressibility Index and Hausner ratio • 4. Angle of repose Solubility: Flowability measures how uniformly the powder flows from the hopper into the tablet die and is an index of how well the tablet die will be filled to a constant volume. […] Similarly, the angle between the freestanding surface of a powder heap and horizontal plane is the angle of repose. […] flowability was less and could be improved with addition of lubricants during tablet-making. Results of tests to determine the Angle of repose (35°), Carr's index (33.3%), bulk density (0.236 gm/ml) and tapped density ([…]) indicate that the drug powder had poor flow properties."}},
  "note": "Like-named read-outs stand apart in the source and are kept apart here.",
  "data": [
    {"smiles": "Cc1c(-c2ccccc2)oc2c(C(=O)O)cccc2c1=O", "note": "[MFCA, 3-methylflavone-8-carboxylic acid]", "values": [
      {"measurement": "half-life t½", "setting": "[1]; MFCA", "result": 3.5, "unit": "h"}
    ]},
    {"smiles": "Cc1c(-c2ccccc2)oc2c(C(=O)OCCN3CCCCC3)cccc2c1=O.Cl", "note": "[flavoxate, 2-piperidinoethyl-3-methylflavone 8-carboxylate hydrochloride]", "values": [
      {"measurement": "duration of therapeutic activity", "setting": "[1]; in vivo", "result": "5 to 6", "unit": "h"},
      {"measurement": "free flavoxate in urine", "setting": "[1]; in vivo", "result": "No free flavoxate was found"},
      {"measurement": "time of peak level of MFCA", "setting": "[1]; oral 400 mg dose", "result": "around two hours"},
      {"measurement": "time of peak level of MFCA", "setting": "[1]; oral administration of 200 mg dose", "result": "30 to 60", "unit": "min"},
      {"measurement": "dose excreted as MFCA within 12 hours", "setting": "[1]; oral, within 12 hours", "result": "About 50%"},
      {"measurement": "dose excreted as MFCA", "setting": "[1]; urine, 24 hours, intravenous", "result": 47, "unit": "%"},
      {"measurement": "Solubility % w/v", "setting": "[2]; Acetone", "result": "Insoluble"},
      {"measurement": "Solubility % w/v", "setting": "[2]; Chloroform", "result": 2.50, "unit": "% w/v"},
      {"measurement": "Solubility % w/v", "setting": "[2]; Ethanol", "result": 0.20, "unit": "% w/v"},
      {"measurement": "Solubility % w/v", "setting": "[2]; Ethyl Ether", "result": "Insoluble"},
      {"measurement": "Solubility % w/v", "setting": "[2]; Methanol", "result": 0.90, "unit": "% w/v"},
      {"measurement": "solubility", "setting": "[2]; Water, read-out: Solubility % w/v", "result": 7500, "unit": "µg/mL"},
      {"measurement": "Total R.S. (%) 30 D/40° C./75% RH*", "setting": "[3]; 30 days at 40° C. and 75% relative humidity", "result": 0.04, "unit": "%"},
      {"measurement": "Total R.S. (%) Initial", "setting": "[3]; initial", "result": 0.02, "unit": "%"},
      {"measurement": "solubility", "setting": "[4]; aqueous buffer, 0.05N Phosphate Buffer, pH 2.5, 20 to 25° C.", "result": 7640, "unit": "µg/mL"},
      {"measurement": "solubility", "setting": "[4]; aqueous buffer, 0.05N Phosphate Buffer, pH 4.5, 20 to 25° C.", "result": 13700, "unit": "µg/mL"},
      {"measurement": "solubility", "setting": "[4]; aqueous buffer, 0.05N Phosphate Buffer, pH 6.0, 20 to 25° C.", "result": 15400, "unit": "µg/mL"},
      {"measurement": "solubility", "setting": "[4]; aqueous buffer, 0.05N Phosphate Buffer, pH 6.8, 20 to 25° C.", "result": 6170, "unit": "µg/mL"},
      {"measurement": "solubility", "setting": "[4]; aqueous buffer, 0.05N Phosphate Buffer, pH 7.2, 20 to 25° C.", "result": 1040, "unit": "µg/mL"},
      {"measurement": "solubility", "setting": "[4]; aqueous buffer, 0.05N Phosphate Buffer, pH 7.5, 20 to 25° C.", "result": 580, "unit": "µg/mL"},
      {"measurement": "solubility", "setting": "[4]; simulated gastric fluid, 0.1N HCl, pH 1.2, 20 to 25° C.", "result": 570, "unit": "µg/mL"},
      {"measurement": "solubility", "setting": "[4]; Water, pH 5.7, 20 to 25° C.", "result": 11300, "unit": "µg/mL"},
      {"measurement": "Angle of repose", "setting": "[5]", "result": 35, "unit": "°"},
      {"measurement": "Carr's index", "setting": "[5]", "result": 33.3, "unit": "%"},
      {"measurement": "bulk density", "setting": "[5]", "result": 0.236, "unit": "gm/ml"},
      {"measurement": "tapped density", "setting": "[5]", "result": 0.355, "unit": "g/mL"}
    ]}
  ]
}
